Values quoted from earlier work in patent US10905651B1, “Zeinmersome nanocarriers for drug delivery to the liver” (King Abdulaziz University, priority 2020, dated 2021).

Conditions: cited from earlier work

CCCc1nc(C(C)(C)O)c(C(=O)O)n1Cc1ccc(-c2ccccc2-c2nnn[nH]2)cc1 [olmesartan]
oral bioavailability of olmesartan (Kobayashi et al. 2000): 4.5% | volume of distribution (Vd) (following IV administration): 15 to 25 L
